Test results reported in patent US9879050B2, “Substituted urea depsipeptide analogs as activators of the CLPP endopeptidase” (priority 2013, dated 2018).
Values after ≈ are worked out from the molar mass of the structure shown. Read-outs that look alike come from different tables or passages of the source.

Assays:
[1] = Cytotoxicity assay, CellTiter-Glo cell viability; assay type: cell-based; settings: African green monkey
Experimental: Cytotoxicity was determined by determining the effect of compounds on cell viability. Vero (kidney epithelial cells; ATCC CCL-81) monolayers were trypsinized and 5000 cells/well were seeded (10-15% confluency) into white-wall, flat bottom 96 well microwell plates (Corning) using enriched Dulbecco's Modified Eagle's Medium (Hyclone: DMEM/High Glucose) containing 10% Fetal Bovine Serum (ATCC-30-2020). Plates were incubated overnight at 37° C. in the presence of 5% CO2. Drug-free media was then replaced with media containing serial dilutions of test compound or DMSO carrier. After an additional 72 hours of incubation, viability was indirectly measured using the CellTiter-Glo® Luminescent Cell Viability (Promega) assay. Assay plates were read at peak emission wavelength of 560 nm using a EnVision® Multilabel Plate Reader (Perkin Elmer) or PHERAstar FS Multilabel reader (BMG, Cary, N.C.). […] USA, www.graphpad.com]. For each experiment, compounds were tested in duplicate. IC50 values presented are the range of two biologically independent experiments.

[2] = target: T1, Sa-ClpP (Staphylococcus aureus, UniProt Q2G036); assay: ADEP displacement fluorescence polarization assay; assay type: binding, S. aureus; settings: 1 μM Sa-ClpP, 50 nM FP probe ADEP 2591; read-out: ADEP Displacement IC50
T1 construct: made in house; host or cells: E. coli BL21 (DE3)
Method in brief: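 Displacement of TAMRA-labelled ADEP 2591 probe (50 nM) from 1 μM Sa-ClpP, pre-equilibrated 1 h in Tris·HCl pH 8.0 with 2% DMSO, then 120 min at room temperature with compound, triplicate. Polarization (mP) read ex 530/em 579 nm, normalised to 20 μM ADEP 2378 and DMSO controls; four-parameter fit.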

[3] = system: S. aureus ATCC 29213; assay: Minimal inhibitory concentration, microbroth dilution; assay type: cell-based; settings: Staphylococcus aureus, ATCC29213, read-out: Minimal Inhibitory Concentration S. aureus ATCC 29213
Experimental: (§1) Minimal inhibitory concentrations (“MICs”) were determined using the microbroth dilution method according to Clinical Laboratory Standards Institute (CLSI; National, C.F. C. L. S., Methods for Dilution Antimicrobial Susceptibility Tests for Bacteria Grow aerobically-Seventh Edition: Approved Standard M7-A7, CLSI, Wayne, Pa., USA, 2008) and were read by visual inspection. Two fold serial dilutions of test compound in 100 μL of the appropriate broth media were first prepared in 96-well round bottom microtiter plates (Nalgene Nunc International, Rochester, N.Y., USA). An equivalent volume (100 μL) of bacterial broth inocula containing approximately 10^5 bacterial cfu/mL was added to each well to give final concentrations of test compound starting at 200 μM. The plates were then incubated aerobically at 37° C. All strains were incubated overnight. After incubations, in all cases the MIC was recorded as the lowest concentration of drug that prevented bacterial growth. The bacterial strains for which MIC was determined as described in Table 4.

[4] = system: B. subtilis ATCC 23857; assay: as above; assay type: cell-based; settings: Bacillus subtilis, ATCC23857, read-out: Minimal Inhibitory Concentration B. subtilis ATCC 23857
Experimental: as §1

[5] = system: S. pyogenes ATCC 700294; assay: as above; assay type: cell-based; settings: Streptococcus pyogenes, ATCC700294, read-out: Minimal Inhibitory Concentration S. pyogenes ATCC 700294
Method in brief: (§2)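 Twofold serial dilutions in broth per CLSI M7-A7 microbroth dilution, incubated aerobically overnight at 37° C. MIC read visually as lowest concentration preventing bacterial growth.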

[6] = system: S. pneumoniae R6; assay: as above; assay type: cell-based; settings: Streptococcus pneumoniae, R6, read-out: Minimal Inhibitory Concentration S. pneumoniae R6
Method in brief: as §2

[7] = system: S. aureus USA 300 ΔClpP; assay: as above; assay type: cell-based, Staphylococcus aureus; settings: ClpP inactivated strain
Method in brief: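 MICs were determined by CLSI broth microdilution, using two-fold compound dilutions from a final 200 μM and about 10^5 cfu/mL inoculum. Plates were incubated aerobically at 37 °C overnight. The MIC was read visually as the lowest concentration preventing growth.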

[8] = target: T1, Sa-ClpP; assay: ClpP activation, EnzCheck Protease Assay with Bodipy-FL casein (second described method); assay type: biochemical, S. aureus; settings: read-out: ClpP Activation EC50 (converted)
Method in brief: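 Sa-ClpP (2 μM in master mix) with Bodipy-FL casein (2 μM in master mix) in Tris-HCl pH 8.0, 0.01% Triton X-100, compounds in 2% DMSO, triplicate. Fluorescence (ex 485/em 520 nm) followed 30 min; degradation slopes normalized to ADEP4 and DMSO controls, EC50 and % activation by four-parameter fit.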

[9] = target: T2, S. aureus ClpP (Sa-ClpP) (Staphylococcus aureus, UniProt Q2G036); assay: ClpP activation, casein-BODIPY digestion assay (first described method); assay type: biochemical; settings: first described ClpP activation assay (**); 10 μM saClpP, 25 μg/ml BODIPY FL casein, 37° C.; read-out: ClpP Activation EC50
T2 construct: made in house; host or cells: E. coli BL21 (DE3)
Experimental: The compounds were assayed in a casein digestion assay in order to determine their effect on ClpP activation. Briefly, the assay was carried out using S. aureus ClpP (“Sa-ClpP”) overexpressed in E. coli BL21 (DE3) and purified in a two-step process. Purity of the protein was assessed through SDS PAGE analysis. EC50 evaluations were conducted in triplicate in a 20 μl assay format using a method adapted from Maurizi et al. (Methods Enzymol. (1994) 244:314-331.). Each well contained 10 μM saClpP, 25 μg/ml BODIPY FL casein (Invitrogen Corporation, San Diego, Calif.), and test compound in concentrations ranging between 0-100 μM in assay buffer (50 mM Tris pH 8, 200 mM KCl, and 1 mM TCEP). The reaction took place at 37° C. Fluorescence (excitation 485 nm; emission 528 nm) was measured in five minute intervals over a 45 min period using a BioTek HT fluorescence microplate reader (BioTek Instruments, Inc., Winooski, Vt.). Velocity of each reaction was calculated and data was fit to a dose response curve using GraphPad Prism® software (GraphPad Software, Inc., La Jolla, Calif.). EC50 is the effective concentration of compound which causes 50% activation of S. aureus ClpP in the foregoing BODIPY FL casein assay.

[10] = Vero cells, 72 hours, read-out: Cytotoxicity IC50

T1 sequence (Q2G036 whole entry): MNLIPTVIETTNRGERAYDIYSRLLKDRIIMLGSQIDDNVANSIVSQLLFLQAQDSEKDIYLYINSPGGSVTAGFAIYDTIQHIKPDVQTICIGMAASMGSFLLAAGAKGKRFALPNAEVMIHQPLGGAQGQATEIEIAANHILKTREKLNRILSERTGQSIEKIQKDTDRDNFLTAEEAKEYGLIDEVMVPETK
T2 sequence (Q2G036 whole entry): as above

Row | Structure (SMILES) | IC50 at 72 h [1, 10] [µM] | IC50 [2] [µM] | MIC [3] [µM] | MIC [4] [µM] | MIC [5] [µM] | MIC [6] [µM] | Minimal Inhibitory Concentration S. aureus USA 300 ΔClpP [7] [µM] | EC50 [8] [µM] | IC50 at 72 h [1] [µM] | EC50 [9] [µM]
1 | Cc1ccc(NC(=O)N[C@@H](Cc2cc(F)cc(F)c2)C(=O)N[C@@H]2C(=O)N3CCCC3C(=O)N(C)[C@@H](C)C(=O)N[C@@H](C)C(=O)N3CCCC3C(=O)O[C@H]2C)cc1 (stereo partly drawn) [Compound 25, (2S)-3-(3,5-Difluorophenyl)-N-((6S,9S,11aS,17S,18S)-6,9,10,18-Tetramethyl-5,8,11,16,20-Pentaoxohexadecahydro-1H,5H,16H-Dipyrrolo[2,1-C:2′,1′-L][1]Oxa[4,7,10,13]Tetraazacyclohexadecin-17-Yl)-2-(3-(P-Tolyl)Ureido)Propanamide] | 10.8 ± 1 | 8.9 ± 0.3 | 0.78 (≈ 0.599 µg/mL) | 0.02 (≈ 0.0154 µg/mL) | 1 (≈ 0.768 µg/mL) | 0.254 (≈ 0.195 µg/mL) | 200 | 0.48 ± 0.03 |  | 
2 | Cc1ccc(NC(=O)N[C@@H](Cc2cc(F)cc(F)c2)C(=O)N[C@@H]2C(=O)N3CCCC3C(=O)N3CCCCC3C(=O)N[C@@H](C)C(=O)N3C[C@H](C)CC3C(=O)O[C@H]2C)cc1 (stereo partly drawn) [Compound 39, (S)-3-(3,5-Difluorophenyl)-2-(3-(P-Tolyl)Ureido)-N-((2R,6S,8aS,14aS,20S,21S,23aS)-2,6,21-Trimethyl-5,8,14,19,23-Pentaoxooctadecahydro-1H,5H,14H,19H-Pyrido[2,1-I]Dipyrrolo[2,1-C:2′,1′-L][1]Oxa[4,7,10,13]Tetraazacyclohexadecin-20-Yl)Propanamide] | 40 ± 4.1 | 9 ± 0.4 | 0.05 (≈ 0.0404 µg/mL) | 0.02 (≈ 0.0162 µg/mL) | 0.2 (≈ 0.162 µg/mL) | 0.05 (≈ 0.0404 µg/mL) | 100 | 0.48 ± 0.03 |  | 
3 | Cc1ccc(NC(=O)N[C@@H](Cc2cc(F)cc(F)c2)C(=O)N[C@@H]2C(=O)N3CCCC3C(=O)N(C)[C@@H](C)C(=O)N[C@@H](C)C(=O)N3C[C@@H](C)CC3C(=O)O[C@H]2C)cc1 (stereo partly drawn) [Compound 26, (2S)-3-(3,5-Difluorophenyl)-N-((2S,6S,9S,11aS,17S,18S)-2,6,9,10,18-Pentamethyl-5,8,11,16,20-Pentaoxohexadecahydro-1H,5H,16H-Dipyrrolo[2,1-C:2′,1′-L][1]Oxa[4,7,10,13]Tetraazacyclohexadecin-17-Yl)-2-(3-(P-Tolyl)Ureido)Propanamide] | 40.5 ± 3.8 | 8.2 ± 0.3 | 0.2 (≈ 0.156 µg/mL) | 0.03 (≈ 0.0235 µg/mL) | 0.5 (≈ 0.391 µg/mL) | 0.125 (≈ 0.0977 µg/mL) | 200 | 0.29 ± 0.01 |  | 
4 | Cc1ccc(NC(=O)N[C@@H](Cc2ccccc2)C(=O)N[C@H]2COC(=O)C3C[C@H](C)CN3C(=O)[C@H](C)NC(=O)C3CCCCN3C(=O)C3CCCN3C2=O)cc1 (stereo partly drawn) [Compound 43, (S)—N-((2S,6S,8aS,14aS,20S,23aS)-2,6-Dimethyl-5,8,14,19,23-Pentaoxooctadecahydro-1H,5H,14H,19H-Pyrido[2,1-I]Dipyrrolo[2,1-C:2′,1′-L][1]Oxa[4,7,10,13]Tetraazacyclohexadecin-20-Yl)-3-Phenyl-2-(3-(P-Tolyl)Ureido)Propanamide] | 74.5 ± 8.8 | 6.57 ± 0.2 | 1.6 (≈ 1.21 µg/mL) | 0.4 (≈ 0.303 µg/mL) | 0.8 (≈ 0.606 µg/mL) | 0.2 (≈ 0.152 µg/mL) | >200 | 0.37 ± 0.03 |  | 
5 | C[C@@H]1C[C@H]2C(=O)OC[C@H](NC(=O)[C@H](Cc3cc(F)cc(F)c3)NC(=O)Nc3ccc(OC(F)(F)F)cc3)C(=O)N3CCC[C@H]3C(=O)N3CCCC[C@H]3C(=O)N[C@@H](C)C(=O)N2C1 [Compound 13, (S)-3-(3,5-Difluorophenyl)-N-((2R,6S,8aS,14aS,20S,23aS)-2,6-Dimethyl-5,8,14,19,23-Pentaoxooctadecahydro-1H,5H,14H,19H-Pyrido[2,1-I]Dipyrrolo[2,1-C:2′,1′-L][1]Oxa[4,7,10,13]Tetraazacyclohexadecin-20-Yl)-2-(3-(4-(Trifluoromethoxy)Phenyl)Ureido)Propanamide] |  | 5.69 ± 0.5 |  |  |  |  |  |  | 70.9 ± 8.9 | 3.2 ± 0.6
6 | CCc1ccc(NC(=O)N[C@@H](Cc2cc(F)cc(F)c2)C(=O)N[C@H]2COC(=O)[C@@H]3C[C@@H](C)CN3C(=O)[C@H](C)NC(=O)[C@@H]3CCCCN3C(=O)[C@@H]3CCCN3C2=O)cc1 [Compound 14, (S)-3-(3,5-Difluorophenyl)-N-((2R,6S,8aS,14aS,20S,23aS)-2,6-Dimethyl-5,8,14,19,23-Pentaoxooctadecahydro-1H,5H,14H,19H-Pyrido[2,1-I]Dipyrrolo[2,1-C:2′,1′-L][1]Oxa[4,7,10,13]Tetraazacyclohexadecin-20-Yl)-2-(3-(4-Ethylphenyl)Ureido)Propanamide] |  | 61.3 ± 5 |  |  |  |  |  |  | 70.5 ± 13.5 | 2.5 ± 0.6
7 | Cc1ccc(NC(=O)N[C@@H](Cc2cc(F)cc(F)c2)C(=O)N[C@@H]2C(=O)N3CCCC3C(=O)N3CCOCC3C(=O)N[C@@H](C)C(=O)N3C[C@@H](C)CC3C(=O)O[C@H]2C)cc1 (stereo partly drawn) [Compound 33, (S)-3-(3,5-Difluorophenyl)-2-(3-(P-Tolyl)Ureido)-N-((6aS,12S,13S,1 5aS,17S,21S,23aS)-13,17,21-Trimethyl-6,11,15,20,23-Pentaoxooctadecahydro-6H,11H,15H-[1,4]Oxazino[3,4-I]Dipyrrolo[2,1-C:2′,1′-L][1]Oxa[4,7,10,13]Tetraazacyclohexadecin-12-Yl)Propanamide] | 41 ± 4.3 | 5.6 ± 0.3 | 0.2 (≈ 0.162 µg/mL) | 0.2 (≈ 0.162 µg/mL) | 0.39 (≈ 0.316 µg/mL) | 0.098 (≈ 0.0794 µg/mL) | 200 | 0.39 ± 0.02 |  | 
